Patent publication US9115169B2, “Method of treating tumors” (Lytix Biopharma AS, priority 2000, dated 2015)
Values after ≈ are worked out from the molar mass of the structure shown. Read-outs that look alike come from different tables or passages of the source. Where a SMILES comes first, the peptide text is derived from it. [ ]: non-standard residue; d: D form. The star is where a group is joined. βNA = c1ccc2cc(N*)ccc2c1; OBn = c1ccc(CO*)cc1

Columns and labels:
[1] = tested on: Staphylococcus aureus ATCC 25923
[2] = tested on: Escherichia coli ATCC 25922
[3] = tested on: Staphylococcus aureus ATCC 25923; remark: listed apart in the source
[4] = tested on: Escherichia coli ATCC 25922; remark: listed apart in the source
MRSA ATCC 33591 [5] = tested on: MRSA ATCC 33591
Description: (§1) All strains were stored at −70° C. […] All assays were performed in duplicate.

MRSE ATCC 27626 [6] = tested on: MRSE ATCC 27626
Description: as §1

MRSA ATCC 33591 [7] = details: for MIC MRSA: ATCC 33591
Description: as §1

MRSE ATCC 27626 [8] = details: for MIC MRSE: ATCC 27626
Description: as §1

[9] = Table 1, peptide amides, value outside brackets

N=C(N)NCCC[C@H](NC(=O)[C@H](Cc1c[nH]c2ccccc12)NC(=O)[C@@H](N)CCCNC(=N)N)C(N)=O [RWR] (H-Arg-Trp-Arg-NH2; N-terminus assumed)
MBC S. aureus ([1]; ATCC 25923): >100 µg/mL | MBC E. coli ([2]; ATCC 25922): >100 µg/mL | MIC S. aureus ([3]; ATCC 25923): >100 µg/mL | MIC E. coli ([4]; ATCC 25922): >100 µg/mL

COC(=O)[C@H](CCCNC(=N)N)NC(=O)[C@H](Cc1c[nH]c2ccccc12)NC(=O)[C@H](Cc1c[nH]c2ccccc12)NC(=O)[C@@H](N)CCCNC(=N)N [RWWR-OMe, H-L-Arg-L-Trp-L-Trp-L-Arg-OMe] (H-RWWR-OMe)
MBC MRSA (MRSA ATCC 33591 [5]): 100 to 200 µg/mL | MBC S. aureus ([1]; ATCC 25923): 100 to 200 µg/mL | MBC E. coli ([2]; ATCC 25922): >200 (>200) μg/ml | MIC S. aureus ([3]; ATCC 25923): 75 µg/mL (≈ 105 µM) | MBC MRSE (MRSE ATCC 27626 [6]): 20 (20) μg/ml

N=C(N)NCCC[C@H](NC(=O)[C@H](Cc1c[nH]c2ccccc12)NC(=O)[C@H](Cc1c[nH]c2ccccc12)NC(=O)[C@@H](N)CCCNC(=N)N)C(N)=O [RWWR] (H-RWWR-NH2; N-terminus assumed)
MBC S. aureus ([1]; ATCC 25923): >100 µg/mL | MBC E. coli ([2]; ATCC 25922): >100 µg/mL | MIC S. aureus ([3]; ATCC 25923): 10 µg/mL (≈ 14.2 µM) | MIC E. coli ([4]; ATCC 25922): >100 µg/mL

N=C(N)NCCC[C@H](NC(=O)[C@H](CCCNC(=N)N)NC(=O)[C@H](Cc1c[nH]c2ccccc12)NC(=O)[C@H](Cc1c[nH]c2ccccc12)NC(=O)[C@H](Cc1c[nH]c2ccccc12)NC(=O)[C@@H](N)CCCNC(=N)N)C(N)=O [RWWWRR] (H-RWWWRR-NH2)
MBC S. aureus ([1]; ATCC 25923): 10 µg/mL (≈ 9.58 µM) | MBC E. coli ([2]; ATCC 25922): 15 µg/mL (≈ 14.4 µM) | MIC S. aureus ([3]; ATCC 25923): 7.5 µg/mL (≈ 7.18 µM) | MIC E. coli ([4]; ATCC 25922): 10 µg/mL (≈ 9.58 µM)

N=C(N)NCCC[C@H](N)C(=O)N[C@@H](Cc1c[nH]c2ccccc12)C(=O)Nc1ccc2ccccc2c1 [RWβNA] (H-Arg-Trp-βNA)
Minimum inhibitory concentration MRSA (MRSA ATCC 33591 [7]; Table 9): 12.5 µg/mL (≈ 25.7 µM) | Minimum inhibitory concentration S. aureus ([3]; Table 9): 12.5 µg/mL (≈ 25.7 µM) | Minimum inhibitory concentration E. coli ([4]; Table 9): 100 µg/mL (≈ 206 µM) | Minimum inhibitory concentration MRSE (MRSE ATCC 27626 [8]; Table 9): 12.5 µg/mL (≈ 25.7 µM)

N=C(N)NCCC[C@H](N)C(=O)N[C@H](Cc1c[nH]c2ccccc12)C(=O)OCc1ccccc1 [Rw-OBzl] (H-Arg-[dW]-OBn; N-terminus assumed)
MIC MRSA (MRSA ATCC 33591 [7]): 37.5 µg/mL (≈ 83.2 µM) | MIC S. aureus ([3]; ATCC 25923): 37.5 µg/mL (≈ 83.2 µM) | MIC E. coli ([4]; ATCC 25922): >300 µg/mL | MIC MRSE (MRSE ATCC 27626 [8]): 25 µg/mL (≈ 55.5 µM)

COC(=O)[C@H](CCCNC(=N)N)NC(=O)[C@@H](N)Cc1c[nH]c2ccccc12 [WR-OMe, H-L-Trp-L-Arg-OMe] (H-Trp-Arg-OMe)
MBC MRSA (MRSA ATCC 33591 [5]): >200 (>200) μg/ml | MBC S. aureus ([1]; ATCC 25923): >200 (>200) μg/ml | MBC E. coli ([2]; ATCC 25922): >200 (>200) μg/ml | MBC MRSE (MRSE ATCC 27626 [6]): >200 (>200) μg/ml

N=C(N)NCCC[C@H](NC(=O)[C@H](CCCNC(=N)N)NC(=O)[C@@H](N)Cc1c[nH]c2ccccc12)C(=O)N[C@@H](Cc1c[nH]c2ccccc12)C(N)=O [WRRW] (H-WRRW-NH2; N-terminus assumed)
MBC S. aureus ([1]; ATCC 25923): >100 µg/mL | MBC E. coli ([2]; ATCC 25922): >100 µg/mL | MIC S. aureus ([3]; ATCC 25923): 75 to 100 µg/mL | MIC E. coli ([4]; ATCC 25922): >100 µg/mL

N=C(N)NCCC[C@H](NC(=O)[C@H](Cc1c[nH]c2ccccc12)NC(=O)[C@H](CCCNC(=N)N)NC(=O)[C@@H](N)Cc1c[nH]c2ccccc12)C(N)=O [WRWR] (H-WRWR-NH2; N-terminus assumed)
MBC S. aureus [1, 9]: >100 µg/mL | MBC E. coli ([2]; Table 1, peptide amides): >100 µg/mL | MIC S. aureus [3, 9]: 100 µg/mL (≈ 142 µM) | MIC E. coli [4, 9]: >100 µg/mL

N=C(N)NCCC[C@H](NC(=O)[C@@H](N)Cc1c[nH]c2ccccc12)C(=O)N[C@@H](Cc1c[nH]c2ccccc12)C(N)=O [WRW] (H-Trp-Arg-Trp-NH2; N-terminus assumed)
MBC S. aureus ([1]; ATCC 25923): 100 µg/mL (≈ 183 µM) | MBC E. coli ([2]; ATCC 25922): >100 µg/mL | MIC S. aureus ([3]; ATCC 25923): 75 µg/mL (≈ 137 µM) | MIC E. coli ([4]; ATCC 25922): >100 µg/mL

COC(=O)[C@H](CCCNC(=N)N)NC(=O)[C@H](Cc1c[nH]c2ccccc12)NC(=O)[C@@H](N)Cc1c[nH]c2ccccc12 [WWR-OMe, H-L-Trp-L-Trp-L-Arg-OMe] (H-Trp-Trp-Arg-OMe)
MBC MRSA (MRSA ATCC 33591 [5]): >200 (>200) μg/ml | MBC S. aureus ([1]; ATCC 25923): >200 (>200) μg/ml | MBC E. coli ([2]; ATCC 25922): >200 (>200) μg/ml | MBC MRSE (MRSE ATCC 27626 [6]): >200 (>200) μg/ml

N=C(N)NCCC[C@@H](N)C(=O)N[C@@H](Cc1c[nH]c2ccccc12)C(=O)OCc1ccccc1 [rW-Obzl] (H-[dR]-Trp-OBn; N-terminus assumed)
MIC MRSA (MRSA ATCC 33591 [7]): 50 µg/mL (≈ 111 µM) | MIC S. aureus ([3]; ATCC 25923): 37.5 µg/mL (≈ 83.2 µM) | MIC E. coli ([4]; ATCC 25922): >300 µg/mL | MIC MRSE (MRSE ATCC 27626 [8]): 25 µg/mL (≈ 55.5 µM)
